Measurements reported in ChEMBL document CHEMBL5223063, “Recent advances in urea- and thiourea-containing compounds: focus on innovative approaches in medicinal chemistry and organic synthesis” (RSC Med Chem, 2021).

Key:
[1] = Oral bioavailability in rat; assay type: ADME, organism-based; conditions: in vivo
[2] = Permeability coefficient of the compound in human Caco-2 cells; assay type: ADME, cell-based; conditions: read-out: Kp
[3] = 1-Octanol/phosphate buffer partition coefficient, logP of the compound at pH 7.40; assay type: physicochemical; conditions: pH 7.4
[4] = Induction of anion transport in NaCl loaded POPC liposomes assessed transmembrane permeability by measuring chloride efflux by ion selective electrode
[5] = Dissociation constant, pKa of compound; assay type: physicochemical

Row | Structure (SMILES) | logD [3] | EC50 [4] [mol%] | further results
1 | COC(=O)C1=C(C)NC(C)=C(C(=O)OC)C1c1cccc(NC(=O)NCCCN2CCC(c3cccc(OC)c3)CC2)c1 | – | – | bioavailability [1]: 0.1%; Papp [2]: 1.9 ×10⁻⁶ cm/s
2 | Cc1cccc(Nc2ccncc2S(=O)(=O)N/C(=C/[N+](=O)[O-])NC(C)C)c1 | 1.12 | – | –
3 | O=c1c(Nc2cc(C(F)(F)F)cc(C(F)(F)F)c2)c(Nc2cc(C(F)(F)F)cc(C(F)(F)F)c2)c1=O | – | 0.01 | –
4 | Cc1cccc(Nc2ccncc2S(=O)(=O)NC(=NC#N)NC(C)C)c1 | 0.86 | – | pKa [5]: 6
5 | FC(F)(F)c1cc(NC(=S)Nc2cc(C(F)(F)F)cc(C(F)(F)F)c2)cc(C(F)(F)F)c1 | – | 0.16 | –
6 | Cc1cccc(Nc2ccncc2S(=O)(=O)NC(=S)NC(C)C)c1 | 0.61 | – | –
7 | COC(=O)C1=C(C)NC(C)=C(C(=O)OC)C1c1cccc(N/C(=N/C#N)NCCCN2CCC(c3cccc(OC)c3)CC2)c1 | – | – | Papp [2]: 4.3 ×10⁻⁶ cm/s
8 | O=C(Nc1cc(C(F)(F)F)cc(C(F)(F)F)c1)Nc1cc(C(F)(F)F)cc(C(F)(F)F)c1 | – | 0.3 | –
9 | Cc1cccc(Nc2ccncc2S(=O)(=O)NC(=O)NC(C)C)c1 [TORSEMIDE] | 0.45 | – | pKa [5]: 6.68
